Test results reported in ChEMBL document CHEMBL5247643, “Discovery and Characterization of BAY-805, a Potent and Selective Inhibitor of Ubiquitin-Specific Protease USP21” (J Med Chem, 2023).
Calls of active or inactive are those of the source. The calls are words filed in the database; no cut-off is given here.

Assays:
Conditions in all cases: dose 10-50 µM
[1] = target: T1, Ubiquitin carboxyl-terminal hydrolase 22 (Homo sapiens) (UniProt Q9UPT9); test: Inhibition of human USP22 (1 to 525 residues) expressed in Sf9 cells using ubiquitin rhodamine 110 as substrate assessed as remaining enzyme activity at 10 to 50 uM by fluorometric assay
T1 sequence (whole entry): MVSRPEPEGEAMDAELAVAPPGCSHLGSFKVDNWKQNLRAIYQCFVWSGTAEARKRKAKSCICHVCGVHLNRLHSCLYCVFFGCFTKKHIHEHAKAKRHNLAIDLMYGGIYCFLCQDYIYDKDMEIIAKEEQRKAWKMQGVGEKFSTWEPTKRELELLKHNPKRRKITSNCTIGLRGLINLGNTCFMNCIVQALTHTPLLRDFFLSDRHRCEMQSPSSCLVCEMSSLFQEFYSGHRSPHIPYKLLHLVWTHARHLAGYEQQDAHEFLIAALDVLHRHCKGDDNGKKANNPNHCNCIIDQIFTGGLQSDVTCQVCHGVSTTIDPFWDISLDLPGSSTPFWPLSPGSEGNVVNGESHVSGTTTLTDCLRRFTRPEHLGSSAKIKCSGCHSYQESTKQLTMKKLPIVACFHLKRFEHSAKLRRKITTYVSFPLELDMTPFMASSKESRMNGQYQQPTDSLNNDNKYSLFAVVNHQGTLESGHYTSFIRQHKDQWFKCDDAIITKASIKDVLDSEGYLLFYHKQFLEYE

[2] = target: T2, Ubiquitin carboxyl-terminal hydrolase 30 (Homo sapiens) (UniProt Q70CQ3); test: Inhibition of human USP30 (57 to 517 residues) expressed in Sf9 cells using ubiquitin rhodamine 110 as substrate assessed as remaining enzyme activity at 10 to 50 uM by fluorometric assay
T2 sequence (whole entry): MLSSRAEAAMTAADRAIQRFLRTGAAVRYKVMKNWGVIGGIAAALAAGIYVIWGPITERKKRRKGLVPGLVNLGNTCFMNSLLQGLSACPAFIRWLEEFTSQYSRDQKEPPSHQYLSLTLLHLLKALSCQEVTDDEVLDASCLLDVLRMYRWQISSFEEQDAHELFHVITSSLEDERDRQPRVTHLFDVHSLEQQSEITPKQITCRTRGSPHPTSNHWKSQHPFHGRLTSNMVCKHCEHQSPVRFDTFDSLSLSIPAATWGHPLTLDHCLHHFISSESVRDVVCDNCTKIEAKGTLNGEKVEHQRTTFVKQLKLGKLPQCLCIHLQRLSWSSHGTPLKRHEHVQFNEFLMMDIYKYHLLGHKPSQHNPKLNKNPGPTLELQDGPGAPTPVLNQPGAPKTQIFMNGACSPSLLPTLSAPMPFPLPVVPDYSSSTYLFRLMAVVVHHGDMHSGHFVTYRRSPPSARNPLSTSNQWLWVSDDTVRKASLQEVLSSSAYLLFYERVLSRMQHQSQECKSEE

[3] = target: T3, Ubiquitin carboxyl-terminal hydrolase 15 (Homo sapiens) (UniProt Q9Y4E8); test: Inhibition of human USP15 (1 to 952 residues) expressed in Sf9 cells using ubiquitin rhodamine 110 as substrate assessed as remaining enzyme activity at 10 to 50 uM by fluorometric assay
T3 sequence (whole entry): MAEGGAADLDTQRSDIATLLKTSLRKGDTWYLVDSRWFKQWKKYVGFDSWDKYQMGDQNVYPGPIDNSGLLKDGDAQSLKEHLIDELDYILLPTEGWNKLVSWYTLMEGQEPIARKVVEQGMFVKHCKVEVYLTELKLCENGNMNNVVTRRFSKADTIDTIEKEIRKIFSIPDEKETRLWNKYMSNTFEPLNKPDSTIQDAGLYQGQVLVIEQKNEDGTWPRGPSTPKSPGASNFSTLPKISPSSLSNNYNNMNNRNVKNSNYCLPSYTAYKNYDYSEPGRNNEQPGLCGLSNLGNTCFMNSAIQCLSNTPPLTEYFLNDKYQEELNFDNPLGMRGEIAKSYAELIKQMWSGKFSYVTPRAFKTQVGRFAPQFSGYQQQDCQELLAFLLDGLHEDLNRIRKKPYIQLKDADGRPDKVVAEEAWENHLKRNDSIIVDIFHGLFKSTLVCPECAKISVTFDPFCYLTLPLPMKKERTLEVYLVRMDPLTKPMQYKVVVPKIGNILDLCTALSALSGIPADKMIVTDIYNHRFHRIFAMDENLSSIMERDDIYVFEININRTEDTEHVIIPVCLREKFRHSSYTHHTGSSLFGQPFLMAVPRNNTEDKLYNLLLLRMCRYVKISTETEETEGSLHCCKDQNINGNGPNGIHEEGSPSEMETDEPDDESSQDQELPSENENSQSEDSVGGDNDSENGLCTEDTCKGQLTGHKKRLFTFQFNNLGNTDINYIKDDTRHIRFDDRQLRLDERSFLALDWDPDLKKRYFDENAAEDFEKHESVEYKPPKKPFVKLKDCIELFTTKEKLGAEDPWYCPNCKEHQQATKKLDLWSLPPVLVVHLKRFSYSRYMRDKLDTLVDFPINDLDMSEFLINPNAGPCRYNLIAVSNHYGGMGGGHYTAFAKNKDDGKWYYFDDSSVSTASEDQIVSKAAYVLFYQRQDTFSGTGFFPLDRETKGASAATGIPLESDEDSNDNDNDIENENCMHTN

[4] = target: Ubiquitin carboxyl-terminal hydrolase 9X (Homo sapiens) (UniProt Q93008); test: Inhibition of human USP9X using ubiquitin rhodamine 110 as substrate at 10 to 50 uM by fluorometric assay
[5] = target: Ubiquitin carboxyl-terminal hydrolase 7 (Homo sapiens) (UniProt Q93009); test: Inhibition of human USP7 using ubiquitin rhodamine 110 as substrate at 10 to 50 uM by fluorometric assay
[6] = target: T4, Ubiquitin carboxyl-terminal hydrolase 2 (Homo sapiens) (UniProt O75604); test: Inhibition of human USP2 using ubiquitin rhodamine 110 as substrate at 10 to 50 uM by fluorometric assay
T4 sequence (whole entry): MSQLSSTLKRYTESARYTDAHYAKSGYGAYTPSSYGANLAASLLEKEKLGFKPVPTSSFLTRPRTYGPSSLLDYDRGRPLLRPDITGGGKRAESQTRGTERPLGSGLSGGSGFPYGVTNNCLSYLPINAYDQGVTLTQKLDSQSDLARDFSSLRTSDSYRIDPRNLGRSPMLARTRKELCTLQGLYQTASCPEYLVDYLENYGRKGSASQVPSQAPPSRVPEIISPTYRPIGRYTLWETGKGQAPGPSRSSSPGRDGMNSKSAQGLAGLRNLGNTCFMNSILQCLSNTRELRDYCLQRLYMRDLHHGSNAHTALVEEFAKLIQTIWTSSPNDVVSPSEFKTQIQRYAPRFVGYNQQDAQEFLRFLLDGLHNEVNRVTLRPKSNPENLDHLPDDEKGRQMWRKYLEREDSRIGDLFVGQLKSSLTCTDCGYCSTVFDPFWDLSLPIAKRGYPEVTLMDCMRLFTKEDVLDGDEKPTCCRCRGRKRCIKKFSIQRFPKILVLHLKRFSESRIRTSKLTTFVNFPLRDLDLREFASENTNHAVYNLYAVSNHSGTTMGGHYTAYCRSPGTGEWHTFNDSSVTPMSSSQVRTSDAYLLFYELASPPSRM

Sequence of Ubiquitin carboxyl-terminal hydrolase 7 (Homo sapiens) (Q93009 whole entry, looked up): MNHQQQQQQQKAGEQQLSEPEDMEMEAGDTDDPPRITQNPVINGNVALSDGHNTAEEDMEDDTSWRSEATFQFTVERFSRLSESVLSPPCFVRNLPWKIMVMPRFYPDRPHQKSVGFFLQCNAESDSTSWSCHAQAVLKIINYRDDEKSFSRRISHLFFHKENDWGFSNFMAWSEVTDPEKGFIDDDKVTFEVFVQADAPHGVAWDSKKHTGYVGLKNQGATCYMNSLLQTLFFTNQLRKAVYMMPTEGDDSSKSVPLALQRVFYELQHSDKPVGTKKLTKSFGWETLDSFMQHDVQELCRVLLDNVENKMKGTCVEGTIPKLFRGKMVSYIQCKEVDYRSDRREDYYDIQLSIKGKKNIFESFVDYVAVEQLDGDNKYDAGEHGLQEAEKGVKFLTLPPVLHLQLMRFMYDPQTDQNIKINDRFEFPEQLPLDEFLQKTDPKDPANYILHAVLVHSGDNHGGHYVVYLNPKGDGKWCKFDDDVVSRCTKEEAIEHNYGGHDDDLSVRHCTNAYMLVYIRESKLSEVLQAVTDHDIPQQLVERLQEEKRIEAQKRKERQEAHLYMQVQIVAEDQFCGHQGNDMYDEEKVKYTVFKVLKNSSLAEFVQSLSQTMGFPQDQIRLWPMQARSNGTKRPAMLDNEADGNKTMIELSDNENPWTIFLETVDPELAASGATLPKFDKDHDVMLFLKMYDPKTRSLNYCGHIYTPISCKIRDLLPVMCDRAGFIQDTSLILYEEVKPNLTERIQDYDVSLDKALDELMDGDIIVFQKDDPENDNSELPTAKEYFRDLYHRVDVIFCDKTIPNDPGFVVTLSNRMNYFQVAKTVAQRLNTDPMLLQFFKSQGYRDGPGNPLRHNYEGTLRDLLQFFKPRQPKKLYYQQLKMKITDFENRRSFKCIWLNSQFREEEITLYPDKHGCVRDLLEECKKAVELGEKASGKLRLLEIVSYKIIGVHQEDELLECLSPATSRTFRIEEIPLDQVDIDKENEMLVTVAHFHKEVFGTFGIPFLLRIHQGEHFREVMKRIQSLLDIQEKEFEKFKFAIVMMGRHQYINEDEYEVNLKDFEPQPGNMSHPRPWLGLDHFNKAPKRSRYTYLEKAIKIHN
Sequence of Ubiquitin carboxyl-terminal hydrolase 9X (Homo sapiens) (Q93008 whole entry): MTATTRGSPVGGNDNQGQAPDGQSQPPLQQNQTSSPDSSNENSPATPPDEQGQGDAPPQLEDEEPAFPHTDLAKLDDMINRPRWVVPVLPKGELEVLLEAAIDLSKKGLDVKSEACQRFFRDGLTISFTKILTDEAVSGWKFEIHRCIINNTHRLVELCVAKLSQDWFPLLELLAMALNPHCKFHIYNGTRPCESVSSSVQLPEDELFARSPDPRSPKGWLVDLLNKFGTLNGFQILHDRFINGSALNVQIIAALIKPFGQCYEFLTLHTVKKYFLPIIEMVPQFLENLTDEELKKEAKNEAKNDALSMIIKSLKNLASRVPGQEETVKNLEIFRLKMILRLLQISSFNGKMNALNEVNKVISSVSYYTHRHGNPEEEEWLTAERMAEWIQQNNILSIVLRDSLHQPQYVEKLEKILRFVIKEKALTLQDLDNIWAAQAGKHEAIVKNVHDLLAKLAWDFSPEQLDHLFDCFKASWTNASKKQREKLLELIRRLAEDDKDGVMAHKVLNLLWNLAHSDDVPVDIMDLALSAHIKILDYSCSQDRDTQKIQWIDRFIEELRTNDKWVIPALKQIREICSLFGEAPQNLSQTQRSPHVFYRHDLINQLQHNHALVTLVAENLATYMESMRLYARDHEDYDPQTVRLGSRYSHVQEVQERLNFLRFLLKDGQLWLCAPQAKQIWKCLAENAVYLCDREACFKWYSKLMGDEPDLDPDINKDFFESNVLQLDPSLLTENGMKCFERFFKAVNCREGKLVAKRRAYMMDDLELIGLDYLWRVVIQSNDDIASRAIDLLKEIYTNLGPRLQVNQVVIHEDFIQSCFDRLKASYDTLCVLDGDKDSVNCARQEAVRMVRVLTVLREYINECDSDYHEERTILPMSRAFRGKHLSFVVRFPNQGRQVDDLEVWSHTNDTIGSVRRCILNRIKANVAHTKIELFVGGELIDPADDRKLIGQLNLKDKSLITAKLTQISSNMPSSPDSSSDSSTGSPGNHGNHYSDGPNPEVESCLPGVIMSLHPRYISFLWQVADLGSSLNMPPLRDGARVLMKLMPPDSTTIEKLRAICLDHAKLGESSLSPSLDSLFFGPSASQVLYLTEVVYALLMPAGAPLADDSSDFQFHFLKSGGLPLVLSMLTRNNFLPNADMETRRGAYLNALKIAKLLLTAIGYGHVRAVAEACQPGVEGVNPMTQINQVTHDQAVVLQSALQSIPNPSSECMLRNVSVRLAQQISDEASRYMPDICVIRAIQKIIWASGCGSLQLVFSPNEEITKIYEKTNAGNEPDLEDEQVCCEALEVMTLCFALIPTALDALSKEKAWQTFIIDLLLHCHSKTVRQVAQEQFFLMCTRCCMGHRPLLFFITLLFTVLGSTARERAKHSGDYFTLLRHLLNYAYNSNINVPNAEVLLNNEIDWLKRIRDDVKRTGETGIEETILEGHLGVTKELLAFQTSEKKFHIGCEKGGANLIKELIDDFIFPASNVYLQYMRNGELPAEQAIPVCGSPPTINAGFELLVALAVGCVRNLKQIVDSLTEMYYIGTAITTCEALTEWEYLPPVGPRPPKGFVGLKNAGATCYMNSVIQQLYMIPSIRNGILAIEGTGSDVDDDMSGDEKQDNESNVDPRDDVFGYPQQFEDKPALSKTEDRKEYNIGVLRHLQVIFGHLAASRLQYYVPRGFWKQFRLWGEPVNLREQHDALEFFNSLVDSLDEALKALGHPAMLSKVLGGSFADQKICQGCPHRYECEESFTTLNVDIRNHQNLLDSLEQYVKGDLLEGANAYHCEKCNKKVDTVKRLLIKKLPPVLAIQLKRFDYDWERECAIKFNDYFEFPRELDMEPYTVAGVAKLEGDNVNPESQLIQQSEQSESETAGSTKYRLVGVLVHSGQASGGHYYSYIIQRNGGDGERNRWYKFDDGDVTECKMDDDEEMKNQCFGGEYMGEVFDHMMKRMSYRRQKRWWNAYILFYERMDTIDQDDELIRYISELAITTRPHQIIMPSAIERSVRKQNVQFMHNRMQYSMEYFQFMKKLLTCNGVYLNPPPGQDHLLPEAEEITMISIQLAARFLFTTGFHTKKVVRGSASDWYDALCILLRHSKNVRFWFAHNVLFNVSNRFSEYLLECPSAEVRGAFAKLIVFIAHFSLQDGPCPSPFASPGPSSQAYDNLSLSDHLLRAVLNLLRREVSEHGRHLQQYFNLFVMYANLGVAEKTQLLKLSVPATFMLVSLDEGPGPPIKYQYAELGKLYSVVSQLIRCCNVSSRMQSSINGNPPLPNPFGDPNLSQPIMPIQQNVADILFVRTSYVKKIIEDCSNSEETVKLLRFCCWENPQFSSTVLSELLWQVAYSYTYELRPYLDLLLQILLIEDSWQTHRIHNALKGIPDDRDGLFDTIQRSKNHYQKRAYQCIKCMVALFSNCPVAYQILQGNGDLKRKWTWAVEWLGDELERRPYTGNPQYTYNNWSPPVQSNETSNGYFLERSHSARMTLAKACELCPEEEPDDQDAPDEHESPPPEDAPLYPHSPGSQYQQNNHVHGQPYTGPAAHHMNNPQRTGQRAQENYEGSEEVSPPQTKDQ

Row | Activity [1] | Activity [2] | Activity [3] | inhibition [4] | inhibition [5] | inhibition [6] | Compound
1 | < 50% | < 50% | < 50% |  |  |  | CC(NC(=O)C1CCCC1)C(=O)Nc1nnc(Cc2ccc([N+](=O)[O-])cc2)s1 (racemic)
2 |  |  |  | inactive | inactive | inactive | CC(C)C[C@H](NC(=O)C1(C(F)(F)F)CCCCC1)C(=O)Nc1nnc(Cc2ccc(C#N)cc2)s1
